Measured values taken from ChEMBL document CHEMBL1201862, “PubChem BioAssay data set” (2004).
Active and inactive are the calls of the source.

Key:
[1] = molecular target: Melanin-concentrating hormone receptor 1 (Homo sapiens, UniProt Q99705); experiment: Late-stage fluorescence-based counterscreen for antagonists of the G-protein coupled receptor 7 (GPR7): cell-based dose response assay to identify antagonists of the melanin-concentrating hormone receptor 1 (MCHR1). [Related pubchem assays (depositor defined):AID1861, AID1880, AID1952, AID2148, AID2251, AID2257, AID485339]; assay type: functional;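 note: stimulated with 30 nM MCH peptide agonist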
[2] = Counterscreen for IDE inhibitors: Luminescence-based cell-based high throughput dose response assay to identify compounds that are cytotoxic to HEK cells. [Related pubchem assays: 434962 (Primary screen (IDE inhibitors in singlicate)), 449730 (Counterscreen (Cytotoxicity in triplicate)), 435028 (Confirmation (IDE inhibitors in triplicate)) …; assay type: functional; conditions: HEK293
Large T antigen = Large T antigen (Simian virus 40, UniProt P03070); assay type: functional, Betapolyomavirus macacae;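 note: Confirmatory-stage PubChem screen for compounds that inhibit SV40 T antigen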
Large T antigen, sequence (P03070 whole entry): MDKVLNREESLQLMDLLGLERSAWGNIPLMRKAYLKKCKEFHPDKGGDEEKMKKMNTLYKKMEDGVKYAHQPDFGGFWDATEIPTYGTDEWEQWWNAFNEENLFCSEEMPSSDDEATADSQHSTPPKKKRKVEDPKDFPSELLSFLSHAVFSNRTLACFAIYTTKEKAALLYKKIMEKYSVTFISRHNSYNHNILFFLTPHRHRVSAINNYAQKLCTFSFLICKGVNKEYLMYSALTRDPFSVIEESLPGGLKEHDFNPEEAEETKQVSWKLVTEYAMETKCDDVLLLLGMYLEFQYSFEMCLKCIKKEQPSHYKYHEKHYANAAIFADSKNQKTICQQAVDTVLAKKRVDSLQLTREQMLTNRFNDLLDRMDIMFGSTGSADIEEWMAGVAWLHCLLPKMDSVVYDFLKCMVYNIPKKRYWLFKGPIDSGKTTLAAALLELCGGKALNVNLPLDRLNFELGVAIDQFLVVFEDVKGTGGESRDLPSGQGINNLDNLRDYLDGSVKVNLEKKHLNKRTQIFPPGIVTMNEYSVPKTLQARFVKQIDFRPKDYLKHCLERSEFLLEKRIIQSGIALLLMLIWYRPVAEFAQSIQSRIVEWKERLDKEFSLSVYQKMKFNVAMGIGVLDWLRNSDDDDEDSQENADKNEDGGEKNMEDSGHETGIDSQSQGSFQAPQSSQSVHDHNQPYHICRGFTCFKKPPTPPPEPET

Insulin-degrading enzyme = molecular target: T1, Insulin-degrading enzyme (Homo sapiens, UniProt P14735); experiment: Dose Response: Fluorescence polarization-based cell-based high throughput dose response assay for inhibitors of insulin-degrading enzyme (IDE). [Related pubchem assays: 434962 (Primary screen (IDE inhibitors in singlicate)), 449730 (Counterscreen (Cytotoxicity in triplicate)), 435028 (Confirmation (IDE inhibitors in triplicate)), 434984 (Summary …; assay type: functional
T1 sequence (P14735 whole entry): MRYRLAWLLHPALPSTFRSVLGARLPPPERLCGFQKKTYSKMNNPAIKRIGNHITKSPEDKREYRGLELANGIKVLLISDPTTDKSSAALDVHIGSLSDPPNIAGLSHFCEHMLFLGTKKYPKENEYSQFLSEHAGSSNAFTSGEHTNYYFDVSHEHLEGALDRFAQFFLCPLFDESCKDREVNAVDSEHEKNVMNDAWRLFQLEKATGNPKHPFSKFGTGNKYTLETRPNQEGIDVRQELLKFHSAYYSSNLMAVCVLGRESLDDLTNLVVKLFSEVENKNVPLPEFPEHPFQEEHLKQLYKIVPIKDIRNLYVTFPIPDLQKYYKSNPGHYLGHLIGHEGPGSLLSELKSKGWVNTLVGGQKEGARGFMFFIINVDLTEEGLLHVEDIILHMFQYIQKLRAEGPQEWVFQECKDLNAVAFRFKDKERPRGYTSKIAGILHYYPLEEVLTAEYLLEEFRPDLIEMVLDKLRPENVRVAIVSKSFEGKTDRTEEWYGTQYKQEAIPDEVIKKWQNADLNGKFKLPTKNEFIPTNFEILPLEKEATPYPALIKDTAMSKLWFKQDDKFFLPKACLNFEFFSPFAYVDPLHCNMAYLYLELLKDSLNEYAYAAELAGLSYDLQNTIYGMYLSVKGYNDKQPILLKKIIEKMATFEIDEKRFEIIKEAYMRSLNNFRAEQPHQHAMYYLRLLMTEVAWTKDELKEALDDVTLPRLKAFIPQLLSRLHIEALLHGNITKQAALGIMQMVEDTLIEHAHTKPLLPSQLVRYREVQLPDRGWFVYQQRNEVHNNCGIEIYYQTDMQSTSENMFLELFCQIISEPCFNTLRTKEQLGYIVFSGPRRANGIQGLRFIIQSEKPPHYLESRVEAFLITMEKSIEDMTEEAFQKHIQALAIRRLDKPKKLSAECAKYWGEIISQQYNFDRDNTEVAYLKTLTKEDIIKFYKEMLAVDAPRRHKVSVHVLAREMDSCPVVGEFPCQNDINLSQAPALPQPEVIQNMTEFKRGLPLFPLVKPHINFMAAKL

[3] = molecular target: Lysosomal acid glucosylceramidase (Homo sapiens, UniProt P04062); experiment: Dose response cell-based high throughput screening assay to identify enhancers of beta-glucosidase activity. [Related pubchem assays: 784 ]; assay type: functional
Lysosomal acid glucosylceramidase, sequence (P04062 whole entry): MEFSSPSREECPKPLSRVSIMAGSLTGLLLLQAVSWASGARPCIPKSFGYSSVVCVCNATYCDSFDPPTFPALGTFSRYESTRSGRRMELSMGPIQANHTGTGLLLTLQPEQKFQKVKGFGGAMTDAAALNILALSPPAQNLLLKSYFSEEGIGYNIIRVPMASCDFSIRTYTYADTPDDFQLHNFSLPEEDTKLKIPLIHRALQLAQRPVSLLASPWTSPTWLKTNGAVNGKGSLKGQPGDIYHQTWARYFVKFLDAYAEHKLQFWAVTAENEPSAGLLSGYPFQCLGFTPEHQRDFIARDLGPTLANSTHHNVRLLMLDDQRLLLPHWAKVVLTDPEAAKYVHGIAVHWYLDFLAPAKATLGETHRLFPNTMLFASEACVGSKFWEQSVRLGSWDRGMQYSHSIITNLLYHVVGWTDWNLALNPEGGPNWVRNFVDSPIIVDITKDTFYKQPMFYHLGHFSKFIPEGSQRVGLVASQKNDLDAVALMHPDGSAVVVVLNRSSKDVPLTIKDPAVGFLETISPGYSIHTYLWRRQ

[4] = viability of uninfected HEp-2 cells – cell-based, HTS, cytotoxicity control for RSV inhibitor project, dose response (AID 2410); assay type: functional; conditions: human respiratory syncytial virus
[5] = molecular target: T2, Heat shock factor protein 1 (Mus musculus, UniProt P38532); experiment: decrease of HSF1-responsive luciferase luminescence – cell-based, NIH3T3, dose retest, confirmation (AID 2382); assay type: functional;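 note: NIH3T3 fibroblasts with HSF1-driven luciferase reporter stressed by proteasome inhibitor MG132; luminescence from HSF1-driven luciferase expression after 8 hours of MG132 stress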
T2 sequence (P38532 whole entry): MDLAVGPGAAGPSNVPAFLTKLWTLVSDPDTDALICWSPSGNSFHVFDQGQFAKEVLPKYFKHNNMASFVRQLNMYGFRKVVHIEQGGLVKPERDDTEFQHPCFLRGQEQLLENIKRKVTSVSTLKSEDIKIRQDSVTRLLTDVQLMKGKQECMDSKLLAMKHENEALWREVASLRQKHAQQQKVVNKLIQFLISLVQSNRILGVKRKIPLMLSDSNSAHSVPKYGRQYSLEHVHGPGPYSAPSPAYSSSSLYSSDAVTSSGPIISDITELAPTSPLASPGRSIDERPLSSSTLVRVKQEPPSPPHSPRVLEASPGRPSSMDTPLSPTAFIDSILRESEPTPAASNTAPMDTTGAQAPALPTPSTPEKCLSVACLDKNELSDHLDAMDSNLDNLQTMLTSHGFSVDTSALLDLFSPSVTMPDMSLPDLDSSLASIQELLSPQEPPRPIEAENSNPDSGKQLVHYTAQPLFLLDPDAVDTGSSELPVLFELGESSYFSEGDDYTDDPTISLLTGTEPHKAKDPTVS

Vero = experiment: Vero cell viability after compound exposure – synthesized analogs, set II, cytotoxicity control for West Nile virus antiviral project, SAR follow-up (AID 2402); assay type: functional; conditions: Chlorocebus sabaeus
[6] = A Cell Based Assay for the Identification of Probe candidate Compounds with Anti- Venezuelan Equine Encephalitis virus. [Related pubchem assays: 2409, 2419, 1621, 2238, 2405, 2024, 2065, 2402, 2414, 1635, 1650, 2244 ]; assay type: functional
[7] = molecular target: Acyl-homoserine lactone acylase PvdQ (Pseudomonas aeruginosa (strain LESB58), UniProt Q9I194); experiment: PvdQ acylase enzyme activity blockers – biochemical, fluorescence, plate reader and imaging, cherry-picks, dose response (AID 493231)
Vasopressin V1a receptor = Vasopressin V1a receptor (Homo sapiens, UniProt P37288); experiment: Counterscreen for Oxytocin Receptor (OXTR) agonists: Fluorescence-based cell-based high throughput dose response assay to identify agonists of the vasopressin 1 receptor (V1R). [Related pubchem assays: 2435 (Primary screen (OXTR agonists in singlicate)), 434991 (Counterscreen (V1R agonists in triplicate)), 2482 (Summary (OXTR agonists)) …; assay type: functional
Oxytocin receptor = Oxytocin receptor (Homo sapiens, UniProt P30559); experiment: Fluorescence-based cell-based high throughput dose response assay for agonists of the Oxytocin Receptor (OXTR). [Related pubchem assays: 2435 (Primary screen (OXTR agonists in singlicate)), 434991 (Counterscreen (V1R agonists in triplicate)), 2482 (Summary (OXTR agonists)), 434963 (Confirmation screen (OXTR agonists in triplicate))]; assay type: functional
[8] = molecular target: T3, Corticotropin-releasing factor receptor 2/Corticotropin-releasing factor-binding protein (Homo sapiens, UniProt P24387+Q13324); experiment: activators of CRF receptor 2 with binding protein – uHTS hits, confirmation (AID 602473); assay type: functional; conditions: read-out: EC50_Mean
T3 sequence (Q13324 whole entry): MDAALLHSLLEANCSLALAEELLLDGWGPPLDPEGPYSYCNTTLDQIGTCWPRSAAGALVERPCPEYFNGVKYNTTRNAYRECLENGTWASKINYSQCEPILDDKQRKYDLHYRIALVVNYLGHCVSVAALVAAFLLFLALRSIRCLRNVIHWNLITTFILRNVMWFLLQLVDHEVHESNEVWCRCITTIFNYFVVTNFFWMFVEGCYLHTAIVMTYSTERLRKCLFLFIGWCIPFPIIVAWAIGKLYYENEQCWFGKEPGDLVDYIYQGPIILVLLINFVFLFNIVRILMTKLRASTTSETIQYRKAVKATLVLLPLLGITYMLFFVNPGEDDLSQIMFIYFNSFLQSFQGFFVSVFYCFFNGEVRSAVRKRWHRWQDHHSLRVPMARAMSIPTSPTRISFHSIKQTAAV
T3 sequence (P24387 whole entry): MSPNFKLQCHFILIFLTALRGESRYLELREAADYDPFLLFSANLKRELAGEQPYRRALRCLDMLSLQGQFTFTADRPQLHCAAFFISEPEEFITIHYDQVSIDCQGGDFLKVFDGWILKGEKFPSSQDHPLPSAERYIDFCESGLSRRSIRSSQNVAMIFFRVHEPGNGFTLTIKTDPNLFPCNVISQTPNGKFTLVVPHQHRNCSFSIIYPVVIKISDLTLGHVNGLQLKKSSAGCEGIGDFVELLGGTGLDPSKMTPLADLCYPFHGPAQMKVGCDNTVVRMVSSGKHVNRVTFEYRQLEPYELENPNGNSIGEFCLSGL

Cytochrome P450 2D6 = Cytochrome P450 2D6 (Homo sapiens, UniProt P10635); experiment: qHTS Assay for Inhibitors and Substrates of Cytochrome P450 2D6. [Related pubchem assays: 410 ]; assay type: ADME; conditions: read-out: Potency
Cytochrome P450 2D6, sequence (P10635 whole entry): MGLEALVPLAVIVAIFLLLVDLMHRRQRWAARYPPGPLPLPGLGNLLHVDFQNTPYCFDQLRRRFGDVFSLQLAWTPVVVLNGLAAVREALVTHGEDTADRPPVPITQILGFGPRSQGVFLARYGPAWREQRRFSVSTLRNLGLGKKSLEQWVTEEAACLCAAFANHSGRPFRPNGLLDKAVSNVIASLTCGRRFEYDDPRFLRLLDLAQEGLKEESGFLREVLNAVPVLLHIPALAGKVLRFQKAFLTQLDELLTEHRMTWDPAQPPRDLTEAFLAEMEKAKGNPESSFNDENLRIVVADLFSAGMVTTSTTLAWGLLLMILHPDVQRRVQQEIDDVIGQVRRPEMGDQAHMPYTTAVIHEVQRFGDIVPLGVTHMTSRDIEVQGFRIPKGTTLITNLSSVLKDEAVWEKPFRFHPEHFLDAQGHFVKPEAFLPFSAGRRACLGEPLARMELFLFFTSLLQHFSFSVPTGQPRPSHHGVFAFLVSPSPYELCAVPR

Cytochrome P450 3A4 = Cytochrome P450 3A4 (Homo sapiens, UniProt P08684); conditions: Potency;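 note: confirmatory qHTS run detecting inhibitors and substrates of CYP3A4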
Cytochrome P450 3A4, sequence (P08684 whole entry): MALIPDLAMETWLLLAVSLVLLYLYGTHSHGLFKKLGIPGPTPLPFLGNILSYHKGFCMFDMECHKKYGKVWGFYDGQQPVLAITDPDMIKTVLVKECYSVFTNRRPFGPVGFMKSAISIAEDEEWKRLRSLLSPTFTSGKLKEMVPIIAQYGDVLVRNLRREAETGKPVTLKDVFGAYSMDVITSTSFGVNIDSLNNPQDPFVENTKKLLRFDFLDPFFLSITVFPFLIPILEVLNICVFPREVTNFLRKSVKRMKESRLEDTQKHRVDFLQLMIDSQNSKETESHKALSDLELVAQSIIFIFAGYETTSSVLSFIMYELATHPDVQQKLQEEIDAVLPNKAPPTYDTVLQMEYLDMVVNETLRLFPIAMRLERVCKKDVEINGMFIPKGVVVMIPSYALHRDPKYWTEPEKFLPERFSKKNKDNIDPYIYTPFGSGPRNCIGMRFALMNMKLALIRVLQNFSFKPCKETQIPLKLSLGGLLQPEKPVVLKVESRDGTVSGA

Cytochrome P450 2C9 = Cytochrome P450 2C9 (Homo sapiens, UniProt P11712); conditions: Potency
Cytochrome P450 2C9, sequence (P11712 whole entry): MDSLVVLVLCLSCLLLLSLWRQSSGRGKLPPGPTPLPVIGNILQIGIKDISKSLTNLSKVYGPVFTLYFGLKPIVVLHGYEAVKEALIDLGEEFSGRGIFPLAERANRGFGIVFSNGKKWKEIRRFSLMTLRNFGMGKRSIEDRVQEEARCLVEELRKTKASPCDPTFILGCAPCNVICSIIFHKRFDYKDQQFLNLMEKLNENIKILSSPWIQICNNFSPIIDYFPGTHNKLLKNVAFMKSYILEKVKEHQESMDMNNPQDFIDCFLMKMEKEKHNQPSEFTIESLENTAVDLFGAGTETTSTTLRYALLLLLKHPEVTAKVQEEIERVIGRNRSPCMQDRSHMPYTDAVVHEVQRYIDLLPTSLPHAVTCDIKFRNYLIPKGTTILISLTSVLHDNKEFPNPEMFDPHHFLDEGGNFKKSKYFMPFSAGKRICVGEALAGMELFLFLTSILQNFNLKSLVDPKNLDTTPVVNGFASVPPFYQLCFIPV

Vibrio harveyi = experiment: Quorum Sensing, LuxS, LuxPQ Measured in Microorganism System Using Plate Reader - 2035-01_Inhibitor_DoseNoFile_DryPowder_Activity. [Related pubchem assays (depositor defined):AID2106]; assay type: functional, organism-based
[9] = molecular target: T4, Tyrosine-protein phosphatase non-receptor type 7 (Homo sapiens, UniProt P35236); assay type: functional
T4 sequence (P35236 whole entry): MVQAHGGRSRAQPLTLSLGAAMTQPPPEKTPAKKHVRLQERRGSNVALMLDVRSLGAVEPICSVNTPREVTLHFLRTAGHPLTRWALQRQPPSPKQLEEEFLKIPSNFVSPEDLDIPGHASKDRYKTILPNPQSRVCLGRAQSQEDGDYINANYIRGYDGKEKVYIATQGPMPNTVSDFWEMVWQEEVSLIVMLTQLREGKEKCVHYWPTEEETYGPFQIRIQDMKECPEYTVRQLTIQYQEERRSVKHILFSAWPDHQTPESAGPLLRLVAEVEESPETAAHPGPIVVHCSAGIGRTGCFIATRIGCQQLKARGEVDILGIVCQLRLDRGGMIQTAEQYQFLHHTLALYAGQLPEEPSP

[10] = molecular target: Glyceraldehyde-3-phosphate dehydrogenase (Homo sapiens, UniProt P04406)
Glyceraldehyde-3-phosphate dehydrogenase, sequence (P04406 whole entry): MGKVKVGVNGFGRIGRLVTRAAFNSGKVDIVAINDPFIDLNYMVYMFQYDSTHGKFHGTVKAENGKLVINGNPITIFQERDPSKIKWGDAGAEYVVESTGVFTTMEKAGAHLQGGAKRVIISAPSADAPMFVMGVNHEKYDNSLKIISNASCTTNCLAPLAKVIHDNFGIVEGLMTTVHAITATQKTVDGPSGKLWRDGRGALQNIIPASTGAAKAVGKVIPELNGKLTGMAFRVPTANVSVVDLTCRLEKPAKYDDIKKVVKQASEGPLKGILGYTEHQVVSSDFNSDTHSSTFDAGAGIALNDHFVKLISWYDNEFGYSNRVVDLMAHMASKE

[11] = molecular target: Heat shock cognate 71 kDa protein (Homo sapiens, UniProt P11142); experiment: In Vitro Hsc70 Dose Response Fluorescence Polarization Assay. [Related pubchem assays: 1072 ]
[12] = molecular target: Heat shock 70 kDa protein 1A (Homo sapiens, UniProt P0DMV8); experiment: inhibition of Hsp70 binding activity – biochemical, fluorescence polarization, SAR follow-up (AID 1072)
Heat shock 70 kDa protein 1A, sequence (P0DMV8 whole entry): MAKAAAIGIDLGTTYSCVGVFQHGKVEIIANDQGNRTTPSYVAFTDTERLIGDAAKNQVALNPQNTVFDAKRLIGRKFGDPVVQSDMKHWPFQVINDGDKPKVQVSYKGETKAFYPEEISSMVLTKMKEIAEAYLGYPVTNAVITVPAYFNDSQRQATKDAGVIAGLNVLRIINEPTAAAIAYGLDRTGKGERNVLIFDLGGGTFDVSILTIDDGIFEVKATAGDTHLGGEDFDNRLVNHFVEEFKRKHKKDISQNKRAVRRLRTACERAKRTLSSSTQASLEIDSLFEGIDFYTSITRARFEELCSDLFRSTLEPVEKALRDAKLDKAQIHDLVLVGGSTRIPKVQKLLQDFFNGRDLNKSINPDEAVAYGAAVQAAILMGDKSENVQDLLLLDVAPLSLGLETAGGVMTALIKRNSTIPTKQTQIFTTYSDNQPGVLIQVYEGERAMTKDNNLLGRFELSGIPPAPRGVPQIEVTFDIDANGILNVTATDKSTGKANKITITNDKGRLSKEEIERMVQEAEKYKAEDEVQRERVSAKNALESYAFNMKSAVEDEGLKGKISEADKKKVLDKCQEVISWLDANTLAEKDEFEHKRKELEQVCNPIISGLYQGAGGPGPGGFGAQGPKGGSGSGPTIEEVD

[13] = molecular target: T5, Dual specificity protein phosphatase 6 (Rattus norvegicus, UniProt Q64346);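 note: in vitro confirmatory secondary MKP-3 assay designed to detect irreversible or slow-binding inhibitors; recombinant His-tagged rat MKP-3 acting on the substrate OMFP; inhibitor potency from reduced phosphatase rate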
T5 sequence (Q64346 whole entry): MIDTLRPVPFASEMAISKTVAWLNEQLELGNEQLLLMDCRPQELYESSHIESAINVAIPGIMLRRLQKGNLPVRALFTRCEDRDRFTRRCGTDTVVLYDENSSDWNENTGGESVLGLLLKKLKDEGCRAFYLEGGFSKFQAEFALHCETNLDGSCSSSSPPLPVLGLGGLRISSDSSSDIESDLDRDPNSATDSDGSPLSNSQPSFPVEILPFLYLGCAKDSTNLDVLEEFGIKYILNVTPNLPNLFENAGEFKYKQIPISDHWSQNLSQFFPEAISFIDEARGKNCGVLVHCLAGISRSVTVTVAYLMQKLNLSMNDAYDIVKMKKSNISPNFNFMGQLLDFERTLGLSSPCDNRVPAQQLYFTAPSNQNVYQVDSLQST

[14] = molecular target: T5, Dual specificity protein phosphatase 6; experiment: inhibition of rat DUSP6 enzyme activity – biochemical, in vitro, primary screen (AID 425)
[15] = molecular target: Induced myeloid leukemia cell differentiation protein Mcl-1 (Homo sapiens, UniProt Q07820); assay type: functional
Induced myeloid leukemia cell differentiation protein Mcl-1, sequence (Q07820 whole entry): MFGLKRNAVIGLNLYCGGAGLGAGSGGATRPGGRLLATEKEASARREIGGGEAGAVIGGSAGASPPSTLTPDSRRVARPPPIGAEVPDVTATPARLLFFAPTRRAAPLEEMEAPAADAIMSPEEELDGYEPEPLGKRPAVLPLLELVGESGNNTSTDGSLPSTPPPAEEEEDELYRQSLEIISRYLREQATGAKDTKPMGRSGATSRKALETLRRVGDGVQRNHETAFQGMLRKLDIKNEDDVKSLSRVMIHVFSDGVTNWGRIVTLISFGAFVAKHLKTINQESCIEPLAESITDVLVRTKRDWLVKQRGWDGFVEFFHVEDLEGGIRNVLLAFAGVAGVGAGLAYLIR

[16] = molecular target: Eukaryotic translation initiation factor 4E (Mus musculus, UniProt P63073); experiment: blockers of eIF4G binding by eIF4E – biochemical, TR-FRET, dose response (AID 855); assay type: functional;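 note: potency for disrupting eIF4E binding to eIF4GI seen as loss of FRET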
Eukaryotic translation initiation factor 4E, sequence (P63073 whole entry): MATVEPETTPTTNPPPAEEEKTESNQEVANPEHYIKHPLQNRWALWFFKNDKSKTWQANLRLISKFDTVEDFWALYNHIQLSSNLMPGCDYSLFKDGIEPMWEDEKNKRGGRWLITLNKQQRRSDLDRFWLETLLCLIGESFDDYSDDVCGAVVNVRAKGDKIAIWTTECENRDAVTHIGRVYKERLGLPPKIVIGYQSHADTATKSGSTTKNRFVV

NS3 = NS3 (Hepatitis C virus, UniProt A3EZJ3); experiment: NS3h DNA-binding inhibition IC50 – biochemical, fluorescence polarization, ChemBridge library, dose response (AID 743264)
NS3, sequence (A3EZJ3 whole entry): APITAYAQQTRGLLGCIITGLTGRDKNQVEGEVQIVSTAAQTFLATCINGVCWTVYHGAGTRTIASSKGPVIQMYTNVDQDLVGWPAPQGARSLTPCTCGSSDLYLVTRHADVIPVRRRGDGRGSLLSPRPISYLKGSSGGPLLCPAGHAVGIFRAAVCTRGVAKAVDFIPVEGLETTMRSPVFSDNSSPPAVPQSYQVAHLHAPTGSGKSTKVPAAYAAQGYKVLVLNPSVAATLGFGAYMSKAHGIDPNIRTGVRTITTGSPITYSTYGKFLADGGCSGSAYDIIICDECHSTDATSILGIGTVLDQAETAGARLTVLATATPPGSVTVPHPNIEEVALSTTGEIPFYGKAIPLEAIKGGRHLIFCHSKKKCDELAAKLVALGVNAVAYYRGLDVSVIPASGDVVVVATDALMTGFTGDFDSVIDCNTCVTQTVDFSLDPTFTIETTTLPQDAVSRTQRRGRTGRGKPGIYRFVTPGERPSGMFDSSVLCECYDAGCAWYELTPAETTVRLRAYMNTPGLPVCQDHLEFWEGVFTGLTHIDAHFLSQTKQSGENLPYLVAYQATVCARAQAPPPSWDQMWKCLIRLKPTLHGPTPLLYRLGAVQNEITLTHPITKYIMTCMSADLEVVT

CCc1ccc(-n2ncc(Cl)c(Oc3ccc(OC)cc3)c2=O)cc1
IC50 [1]: 3.9 µM (active)

COc1cc(-c2cc(=O)c3ccccc3o2)ccc1O
IC50 [2]: > 55.6 µM (not active) | IC50 (Large T antigen): 9.46 µM (active) | IC50 (Insulin-degrading enzyme): > 6.21 µM (active)

Cc1cc(-c2nnc(SCc3cccnc3)o2)no1
EC50 [3]: > 50 µM (not active)

COc1ccc(C(=O)N/C(=C\c2cccs2)c2nc3ccccc3[nH]2)cc1OC
CC50 [4]: > 50 µM (active) | EC50 [5]: > 195 µM (not active) | IC50 (cells): 25.6 µM (active)

COc1ccc(Cn2nc(C)cc2OC(=O)c2c(F)ccc(C)c2F)cc1
CC50 (Vero): > 200 µM (active) | IC50 [6]: 131 µM (active)

CCOC(=O)CC(C#N)c1cn(C)c2ccccc12 (stereo not drawn)
AC50 [7]: 7.18 µM (active)

CC(=O)c1c(C)[nH]c(C(=O)CN2C(=O)NC(C)(c3ccc(C)cc3)C2=O)c1C (stereo not drawn)
EC50 (Vasopressin V1a receptor): > 29.9 µM (not active) | EC50 (Oxytocin receptor): > 29.9 µM (not active) | EC50 [8]: 11.6 µM (active)

CCCCCCCC1=Cc2ccccc2C(CC(C)=O)N1C(=O)OC (stereo not drawn)
AC50 (Cytochrome P450 2D6): 3.98 µM (inconclusive) | AC50 (Cytochrome P450 3A4): 3.16 µM (inconclusive) | AC50 (Cytochrome P450 2C9): 6.31 µM (inconclusive)

CN(C)S(=O)(=O)c1ccc(NC(=S)NC(=O)Cc2ccccc2)cc1
AC50 (Vibrio harveyi): 66.4 µM (active)

Cc1ccc2c(c1)C1C=CCC1C(C(=O)O)N2 (stereo not drawn)
IC50 [9]: 15.6 µM (active) | IC50 [10]: 70.7 µM (active) | IC50 [11]: > 100 µM (not active) | IC50 (Large T antigen): 9.1 µM (active) | IC50 [12]: 4.77 µM (active) | IC50 [13]: 8 µM (active) | IC50 [14]: > 10 µM (not active) | IC50 [15]: > 54 µM (active) | IC50 [16]: 5.44 µM (active) | IC50 (NS3): 37.5 µM (inactive)
